Test results reported in US7446226B2 (priority 2003, dated 2008).

Key:
Settings in all cases: in vivo
[1] = test system: blue mussel Mytilus edulis
[2] = test system: growth of marine organisms on the painted surfaces
[3] = test system: sea tulip Balanus improvisus
[4] = test system: total growth of marine organisms on the panels

COc1cc(CNC(=O)CCCC/C=C/C(C)C)ccc1O [capsaicin, (E)-8-methyl-N-vanillyl-6-nonenamide]
Coverage of the blue mussel Mytilus edulis, difference between the 3 treatments [1]: no statistically significant difference
Growth on surfaces by optical comparison with the control surfaces [2]: considerably less growth
Coverage of the sea tulip Balanus improvisus compared with the 2 other treatments [3]: significantly lower
Reduction in growth measured as coverage of the sea tulip [3]: 74%
Reduction in growth measured as a reduction in wet weight of total growth [4]: 64%
Wet weight of the total growth on the panels compared with the two other treatments [4]: statistically lower growth
